Assay [1] concerns the target hSTING CTD (amino acid residues 139-379) (Homo sapiens, UniProt Q86WV6). The assay is described as follows: Isothermal titration calorimetry, hSTING-CTD. The class given is binding.
Assay [2] concerns full-length mSTING in 293T cells. Description: Response of 293T cells overexpressing full-length mSTING. As to conditions: 293T cells overexpressing mSTING; c-di-GMP 2 μg/ml transfected, DMXAA 500 μM. The class given is cell-based, mouse.
The subject of a further assay is Raw264.7 cells. Description: IFN-β secretion in Raw264.7 cells. The class given is cell-based. To be noted: Raw264.7 mouse macrophage cell line.
In the next assay the test system is TBK1 in Raw264.7 cells. The assay is described as follows: TBK1 phospho-Ser 172 immunoblot in Raw264.7 cells. The class given is cell-based, mouse.
The next assay concerns IRF3. Description: IRF3-driven luciferase reporter cell line. The class given is cell-based, mouse. In general terms: A reporter such as luciferase makes a cellular process visible.
Another assay relates to human leukocytes. To be noted: cited from earlier work.
In assay [3] the target is T1, mSTING CTD (amino acids 139-378) (Mus musculus, UniProt Q3TBT3).
T1 sequence (Q3TBT3 139-378): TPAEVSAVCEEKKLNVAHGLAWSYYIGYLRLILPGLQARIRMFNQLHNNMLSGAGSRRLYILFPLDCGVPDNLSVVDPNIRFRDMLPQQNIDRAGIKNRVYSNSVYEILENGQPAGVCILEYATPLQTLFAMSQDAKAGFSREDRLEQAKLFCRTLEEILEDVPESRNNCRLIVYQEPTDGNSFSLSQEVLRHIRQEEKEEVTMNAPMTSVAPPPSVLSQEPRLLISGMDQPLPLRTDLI
The assay is described as follows: Isothermal titration calorimetry, mSTING-CTD. The class given is binding. To be noted: ITC.

The target of another assay is T2, mSTING CTD (Mus musculus, UniProt Q3TBT3).
T2 sequence (Q3TBT3 139-378): T1 sequence (Q3TBT3 139-378)
Description: Fluorescence polarization competition assay with fluorescein-labeled c-di-GMP. The class given is binding. To be noted: FP. (In general: Fluorescence polarisation rises when a labelled molecule tumbles more slowly, as on binding a larger partner.)

Results on three compounds are retold here after PMC3815523 (ACS chemical biology, 2013).

Chain of hSTING CTD (amino acid residues 139-379) (Q86WV6 140-379): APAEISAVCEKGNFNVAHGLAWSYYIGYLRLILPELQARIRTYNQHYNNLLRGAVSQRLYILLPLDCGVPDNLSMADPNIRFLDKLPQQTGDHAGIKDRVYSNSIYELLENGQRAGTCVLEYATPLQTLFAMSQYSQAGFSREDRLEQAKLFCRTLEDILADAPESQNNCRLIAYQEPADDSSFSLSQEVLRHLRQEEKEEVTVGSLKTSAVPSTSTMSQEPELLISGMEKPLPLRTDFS

As to `Cc1ccc2c(=O)c3cccc(CC(=O)O)c3oc2c1C` [DMXAA, 5,6– dimethylxanthenone-4-acetic acid], in assay [1] (ITC), the “interaction with hSTING CTD” value is “no interaction”. Further, in assay [1] (from upper bound of detection by ITC ∼100 μM), the “affinity for the CTD of hSTING lower than for mSTING” value is given as “at least 1000 fold”. Moreover, in assay [2], the responsiveness of cells result is “responsive”. Besides, the IFN-β secretion result in the assay on Raw264.7 cells was “induces IFN-β secretion”. Also, in the assay on TBK1 in Raw264.7 cells, the “TBK1 phosphorylation (phospho-Ser 172)” value is “became phosphorylated in response to DMXAA in a dose- and time-dependent manner”. Besides, the “IRF3 activation and nuclear translocation” value in the assay on IRF3 was “induces IRF3 activation and nuclear translocation”.

As for `Cc1cccc2oc3c(CC(=O)O)cccc3c(=O)c12` [XAA-8Me], the “IL-6, IL-8 and TNFα secretion” value in the assay with human leukocytes is on record as “increased”.

As to `Nc1nc2c(ncn2[C@@H]2O[C@@H]3COP(=O)(O)O[C@H]4[C@@H](O)[C@H](n5cnc6c(=O)[nH]c(N)nc65)O[C@@H]4COP(=O)(O)O[C@H]3[C@H]2O)c(=O)[nH]1` [c-di-GMP, cyclic-di-GMP], the “higher binding affinity of the mouse homolog vs hSTING” value in assay [3] (mSTING CTD vs hSTING CTD) is given as ~50 fold. Further, the dissociation constant Kd – broadly, the equilibrium constant for the complex coming apart – in assay [3] (read-out: dissociation constant (Kd), 25°C, mSTING CTD) is ~110 nM; in assay [1] (ITC, 25°C, hSTING CTD), ~5200 nM. The stoichiometry in assay [1] (ITC, hSTING CTD) is reported as 0.59. For the same compound, the “competition with fluorescent c-di-GMP probe (apparent IC50)” value at mSTING CTD is given as “competed out this signal”. For the same compound, the responsiveness of cells result in assay [2] was “responsive”.
